Assay in all cases: in vitro condensation assay, fluorescence microscopy of Ade4-mNG particles
Common to all, as to format: binding

Assay [1] deals with T1, Ade4-mNG (yeast PPAT Ade4) (Saccharomyces cerevisiae, UniProt P04046).
T1 construct: full length, C-terminal mNeonGreen and Strep-tag II kept; purified from budding yeast cells
T1 sequence (P04046 2-510): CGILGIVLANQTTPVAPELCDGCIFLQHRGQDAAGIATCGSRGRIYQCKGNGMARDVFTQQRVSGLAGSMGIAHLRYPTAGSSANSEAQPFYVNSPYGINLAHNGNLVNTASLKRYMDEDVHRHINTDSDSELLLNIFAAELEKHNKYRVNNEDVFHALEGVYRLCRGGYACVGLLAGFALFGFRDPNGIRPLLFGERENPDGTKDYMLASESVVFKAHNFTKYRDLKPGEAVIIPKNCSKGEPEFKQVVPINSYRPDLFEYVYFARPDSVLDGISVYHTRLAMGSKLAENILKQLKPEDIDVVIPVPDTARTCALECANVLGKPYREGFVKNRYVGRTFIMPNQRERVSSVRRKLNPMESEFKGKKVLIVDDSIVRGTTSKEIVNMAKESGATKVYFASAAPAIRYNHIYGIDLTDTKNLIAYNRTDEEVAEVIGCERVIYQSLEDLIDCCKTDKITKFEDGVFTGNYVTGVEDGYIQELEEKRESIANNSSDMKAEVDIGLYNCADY
As to conditions: inhibits self-assembly, 0.2 µM protein, 10% PEG8K.

Another assay deals with T2, Ade4∆IDR-mNG (Saccharomyces cerevisiae, UniProt P04046).
T2 construct: C-terminal mNeonGreen and Strep-tag II kept; purified from budding yeast
T2 sequence (P04046 2-480 limits assumed): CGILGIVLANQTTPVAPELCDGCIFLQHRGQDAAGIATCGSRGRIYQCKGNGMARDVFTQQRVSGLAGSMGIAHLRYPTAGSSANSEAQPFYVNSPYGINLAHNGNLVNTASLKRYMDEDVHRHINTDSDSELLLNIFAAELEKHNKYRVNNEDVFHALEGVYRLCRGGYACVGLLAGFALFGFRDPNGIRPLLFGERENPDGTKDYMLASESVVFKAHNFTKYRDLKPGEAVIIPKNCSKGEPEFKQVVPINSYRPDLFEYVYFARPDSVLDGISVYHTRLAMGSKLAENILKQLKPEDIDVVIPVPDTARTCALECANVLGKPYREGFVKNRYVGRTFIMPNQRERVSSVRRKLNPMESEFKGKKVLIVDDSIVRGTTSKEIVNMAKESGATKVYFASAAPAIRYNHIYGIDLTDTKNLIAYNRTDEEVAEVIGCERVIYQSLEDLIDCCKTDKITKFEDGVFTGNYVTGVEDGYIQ
The conditions noted are these: inhibits self-assembly; 500 µM AMP, 0.2 µM protein, 10% PEG8K.

In assay [2] the target is T3, Ade4-mNG (yeast PPAT Ade4) (Saccharomyces cerevisiae, UniProt P04046, D373A/D374A).
T3 construct: full length, C-terminal mNeonGreen and Strep-tag II kept; purified from budding yeast cells
T3 sequence (P04046 2-510 D373A/D374A): T1 sequence (P04046 2-510) with D372A, D373A
As to conditions: inhibits self-assembly, less than wild type; 1 mM AMP, 0.2 µM protein, 10% PEG8K.

Residue numbers refer to the chain shown, from its start.

Take `Nc1ncnc2c1ncn2[C@@H]1O[C@H](COP(=O)(O)OP(=O)(O)O)[C@@H](O)[C@H]1O` [ADP]: the “in vitro condensation assay, fluorescence microscopy of Ade4-mNG particles” value (shortened to “in vitro condensation assay”) in assay [1] (5 mM MgCl2, pH 7.5) was “In the presence of GMP, AMP, ADP, and ATP, the condensation of Ade4-mNG was significantly reduced”.

For the compound `Nc1ncnc2c1ncn2[C@@H]1O[C@H](COP(=O)(O)O)[C@@H](O)[C@H]1O` [AMP], the “in vitro condensation assay” value was “AMP also suppressed the condensation of Ade4∆IDR-mNG” at Ade4∆IDR-mNG; “AMP inhibited the assembly of Ade4-DA-mNG condensates, albeit less effectively than that of Ade4-mNG condensates” in assay [2]; “In the presence of GMP, AMP, ADP, and ATP, the condensation of Ade4-mNG was significantly reduced” in assay [1] (5 mM MgCl2, pH 7.5, counteracted by PRPP). Regarding `Nc1ncnc2c1ncn2[C@@H]1O[C@H](COP(=O)(O)OP(=O)(O)OP(=O)(O)O)[C@@H](O)[C@H]1O` [ATP], the “in vitro condensation assay” value in assay [1] (5 mM MgCl2, pH 7.5) was “In the presence of GMP, AMP, ADP, and ATP, the condensation of Ade4-mNG was significantly reduced”. Take `Nc1nc2c(ncn2[C@@H]2O[C@H](COP(=O)(O)O)[C@@H](O)[C@H]2O)c(=O)[nH]1` [GMP]: the “in vitro condensation assay” value in assay [1] (5 mM MgCl2, pH 7.5) was “In the presence of GMP, AMP, ADP, and ATP, the condensation of Ade4-mNG was significantly reduced”. As for `Nc1ncnc2c1ncn2[C@@H]1O[C@H](CSCC[C@H](N)C(=O)O)[C@@H](O)[C@H]1O` [SAH], the “in vitro condensation assay” value in assay [1] (weaker than AMP, 500 µM SAH, 0.5% DMSO) is “exerted approximately one-third the inhibitory effect of AMP”.

For the origin of these results see paper PMC12017579, “Phase separation of the PRPP amidotransferase into dynamic condensates promotes de novo purine synthesis in yeast” (PLOS Biology, 2025).
